Data reported in patent US4223041A, “Urea derivatives to treat anxiety and aggressivity” (Labaz, priority 1976, dated 1980).

Columns and labels:
[1] = rota rod test (neurotoxicity); type: in vivo, mouse; conditions: for % of failures in rota rod test: mice, 30 min after administration; for Rota rod (% of failures): comparison at 25%-protection dose of four plates test
Procedure: The test used was that known as the rota rod test described by BOISSIER (Therapie 1958 XIII pp. 1074-1118).
This test aims at determining the ability of mice to coordinate their movements by seeing to what extent they can remain on a roller turning at a rate of 4 revolutions per minute for two minutes. The trial was carried out thirty minutes after administration by oral route of the compound to be studied and the percentage of failures was noted.
The value of this test is twofold. Failure on the part of the animals gives a very early indication of the slightest damage to the meuromuscular functions which cannot be discerned by any other means. Secondly, this test serves as an element of comparison for drawing up index figures involving the results obtained with other tests.

[2] = "Electrically-provoked combat" test (anxiolytic action); type: in vivo, mouse; conditions: for protection against anxiety: same experimental conditions
Text: Under certain conditions, a pair of mice reacts to an electric stimulus by a series of combats which are provoked by the anxiety felt by the animals as a result of the electric shock. This anxiety is expressed by a combat with the other animal which is rendered responsible. For this reason, the test described hereunder can be considered as a means of evaluating the anxiolytic action of a compound. Two mice which have been previously on a diet consisting only of water are placed together in a cage. They are then submitted to a series of electric impulses of an intensity varying between 40 and 80 volts according to the sensitivity of the animals. The test is first carried out with untreated animals as controls and then with the same animals treated 30 minutes before the test with a dose of the compound to be studied.
Note is taken on the number of combats engaged. The results are expressed in percentage of decrease in the number of combats engaged by the treated animals in comparison with the number of combats registered before treatment.

[3] = Action on the pentylenetetrazole-induced seizure (anticonvulsant activity); type: in vivo, mouse
Procedure: The purpose of this test which is carried out on mice is to determine whether the compounds of the invention, when given preventively by oral route, are capable at certain doses of protecting some of the animals against the epileptic seizure produced by a predetermined dose of pentylenetetrazole which would be 100% fatal in the absence of the compound.
The compound to be studied was administered fifteen minutes before an injection of 125 mg/kg of pentylenetetrazole and note was taken of the number of deaths occurring during the three hours following this injection. The results were expressed in percentage of protection of the animals against death at the dose studied.

[4] = Four plates test (anxiolytic action); type: in vivo, mouse; conditions: for positive result in four plates test without sedative effect: at ED25 of four plates test; for ED25: po, read-out: ED25 in the four plates test (dose which offers 25%-protection against anxiety)
Text: This test, which is specific to the anxiolytics, was undertaken with the mouse, thirty minutes after the oral administration of the compound to be studied.
It consists in placing mice in a box with fairly high walls, of which the bottom comprises four square plates. These plates, which all have the same dimensions, are separated from each other by a central axis and are alternately electrified by the positive and negative poles of a source of electric current. There is a space of a few millimeters between adjacent plates.
The mouse placed in this apparatus explores it and thus passes over the different plates in succession. Note is taken of the number of times each animal passes over the plates during one minute. When the current is switched on, the mouse passing over the plates receives an electric shock (80 V), which provokes a gradual decrease in the exploratory movements, and finally brings the animals to a complete stop.
Anxiolytic agents enable the animals to become more or less indifferent to the electric shock.
The percentage of protection against anxiety given by compounds of the invention was calculated by comparing the number of times the control animals passed over the plates when electrified with the number of times the treated animals passed over the electrified plates.

[5] = Aggressivity of the isolated mouse (antiaggressive activity); type: in vivo
Text: If a male mouse is isolated in a cage for three to four weeks, it will spontaneously attack any other animal of the same species which is placed in the same cage.
Mice wer isolated for the period of time required to render them spontaneously aggressive. Two mice, one rendered aggressive and one in a normal non-aggressive state, were then placed together and note was taken of the number of attacks by the aggressive mouse which occurred over a period of three minutes.
Each batch was composed of five pairs of animals.
The aggressive animals of each batch were then treated by oral route with the compound to be studied which was administered in such a way that the aggressive animals of each batch received a higher dose than those of the preceding batch.
Thirty minutes after administration, the couples were placed together again for a further three minutes and the number of attacks noted.

[6] = spontaneous motoricity in the mouse; type: in vivo; conditions: for Spontaneous motoricity (% of decrease): comparison at 25%-protection dose of four plates test
Text: This test is described in U.S. Pat. No. 3,929,869.

[7] = Action with respect to tremorine (cholinolytic properties); type: in vivo, mouse; conditions: 100 mg/kg oral, mice, 30 min before 100 mg/kg i.p. tremorine
Procedure: This test has been described by EVERETT (Nature, 1956, 177-238)
When injected into mice, tremorine produces peripheral cholinergic effects i.e. weeping, hypersalivation, sedation, diarrhea as well as central cholinergic effects i.e. tremors, akinesia.
Batches of 10 mice separated into individual cages, were given the compound to be studied, by oral route, 30 minutes before administration of an intraperitoneal dose of 100 mg/kg of tremorine.
Note was then taken in each batch of the percentage of animals presenting the various symptoms of tremorine-induced poisoning since at such a dose of tremorine 100% of the control animals are poisoned.
The results hereunder are expressed in percentage of mice protected against tremor at the dose of the compound of the invention which was administered: […]

[8] = at the dose which provokes a 60%-decrease in the number of combats
[9] = Mus musculus, po, 3 h, read-out: % of protection against death
[10] = Mus musculus, 0.5 h, mice, 30 min before test, read-out: % of decrease in number of combats

With C=CCNC(=O)NC(CCC)(CCC)CCC [Compound N, 1-(1,1-Di-n-propyl-n-butyl)-3-(2-propenyl)-urea] the “% of failures in rota rod test” value ([1]; 720 mg/kg oral) was 0%, the inhibition in vivo at 360 mg/kg ([2]; Mus musculus, 0.5 h, 360 mg/kg, mice, 30 min before test, read-out: % of decrease in number of combats) was 30% and the responders at 240 mg/kg ([3]; Mus musculus, 3 h, 240 mg/kg oral, mice, 15 min before 125 mg/kg pentylenetetrazole, read-out: % of protection against death) was 20%.

For CN1C(=O)CN=C(c2ccccc2)c2cc(Cl)ccc21 [diazepam, reference compound], the “failures in the rota rod test” value [1, 8] was 12%, the “Rota rod (% of failures)” value ([1]; 2 mg/kg) was 35% and the protection against anxiety ([2]; 0.69 mg/kg) was 50%. The “decrease in number of combats obtainable without altering spontaneous motoricity” value ([2]; mice, without action on spontaneous motoricity) was at most 15%, the “positive result in four plates test without sedative effect” value [4] was “impossible” and the ED25 ([4]; 0.5 h, mouse) was 2 mg/kg. The “ED50 in the four plates test” value ([4]; sedative effects too intense above 2 mg/kg) was “not possible to obtain a ED50”, the sedative effects ([5]; 8 mg/kg) was “strongly sedative” and the “reduction in the number of attacks” value ([5]; 8 mg/kg (strongly sedative), isolated mouse) was 38%. The “activity in the isolated mouse test” value ([5]; doses active in four plates and electrically-provoked combat tests) was “devoid of activity”, the antiaggressive effect ([5]; up to 4 mg/kg, isolated mouse) was “no results” and the “Spontaneous motoricity (% of decrease)” value ([6]; 2 mg/kg) was 57%. The “decrease in spontaneous motoricity at dose giving 80% reduction in combats” value ([6]; dose producing 80% decrease in the number of combats) was 40%.

In the case of C#CCNC(=O)NC(CCC)(CCC)CCC [Compound M, 1-(1,1-Di-n-propyl-n-butyl)-3-(2-propynyl)-urea], the “% of failures in rota rod test” value ([1]; 635 mg/kg oral) is reported as 0% and the inhibition in vivo at 254 mg/kg ([2]; Mus musculus, 0.5 h, 254 mg/kg, mice, 30 min before test, read-out: % of decrease in number of combats) is reported as 56%.

With CCCC(CCC)(NC(N)=O)C(C)C [Compound H, 1-(1-n-Propyl-1-isopropyl-n-butyl)-urea] the inhibition in vivo at 110 mg/kg ([2]; Mus musculus, 0.5 h, 110 mg/kg, mice, 30 min before test, read-out: % of decrease in number of combats) was 50% and the inhibition in vivo at 250 mg/kg ([4]; 0.5 h, 250 mg/kg oral, mouse, 30 min after administration, read-out: % of protection against anxiety) was 39%.

For C=CCC(CCC)(CCC)NC(N)=O [Compound E, 1-(1,1-Di-n-propyl-3-butenyl)-urea], the inhibition in vivo at 50 mg/kg ([2]; Mus musculus, 0.5 h, 50 mg/kg, mice, 30 min before test, read-out: % of decrease in number of combats) was 70%, the responders at 300 mg/kg [3, 9] was 90% and the inhibition in vivo at 100 mg/kg ([4]; 0.5 h, 100 mg/kg oral, mouse, 30 min after administration, read-out: % of protection against anxiety) was 27%. For the same compound, the “% of protection against tremor” value [7] was 0%.

Work on CCCCC(C)(CC)NC(N)=O (stereo not shown) [Compound G, 1-(1-Methyl-1-ethyl-pentyl)-urea] yielded an inhibition in vivo at 94 mg/kg ([2]; Mus musculus, 0.5 h, 94 mg/kg, mice, 30 min before test, read-out: % of decrease in number of combats) of 48%, a responders at 188 mg/kg [3, 9] of 20% and an inhibition in vivo at 282 mg/kg ([4]; 0.5 h, 282 mg/kg oral, mouse, 30 min after administration, read-out: % of protection against anxiety) of 18%.

In the case of CCCC(CCC)(CCC)NC(=O)NC [Compound K, 1-(1,1-Di-n-propyl-n-butyl)-3-methyl-urea], the “failures in the rota rod test” value ([1]; 300 mg/kg oral, mouse (ED25 in four plates test)) is reported as “no failures”, the “% of failures in rota rod test” value ([1]; 600 mg/kg oral) is reported as 0% and the “sedative effect relative to reference products” value ([1]; at ED25 of four plates test) is reported as “much less sedative than diazepam and meprobamate”. It also gave an inhibition in vivo at 200 mg/kg [2, 10] of 42%, a responders at 200 mg/kg ([3]; Mus musculus, 3 h, 200 mg/kg oral, mice, 15 min before 125 mg/kg pentylenetetrazole, read-out: % of protection against death) of 30% and an inhibition in vivo at 300 mg/kg ([4]; 0.5 h, 300 mg/kg oral, mouse, 30 min after administration, read-out: % of protection against anxiety) of 25%. For the same compound, the ED25 ([4]; 0.5 h, mouse) was 300 mg/kg.

With CCCC(CCC)(CCC)NC(=O)N(C)C [Compound I, 1-(1,1-Di-n-propyl-n-butyl)-3,3-dimethyl-urea] the inhibition in vivo at 200 mg/kg [2, 10] was 55% and the inhibition in vivo at 350 mg/kg ([4]; 0.5 h, 350 mg/kg oral, mouse, 30 min after administration, read-out: % of protection against anxiety) was 29%.

Work on CCC(CC)(CC)NC(N)=O [Compound F, 1-(1,1-Diethyl-n-propyl)-urea] yielded an inhibition in vivo at 82 mg/kg ([2]; Mus musculus, 0.5 h, 82 mg/kg, mice, 30 min before test, read-out: % of decrease in number of combats) of 50%, a responders at 150 mg/kg [3, 9] of 50% and an inhibition in vivo at 175 mg/kg ([4]; 0.5 h, 175 mg/kg oral, mouse, 30 min after administration, read-out: % of protection against anxiety) of 16%.

With CCCCC(CCCC)(CCCC)NC(N)=O [Compound J, 1-(1,1-Di-n-butyl-n-pentyl)-urea] the “% of failures in rota rod test” value ([1]; 500 mg/kg oral) was 0% and the inhibition in vivo at 200 mg/kg [2, 10] was 67%.

CCC#CC(CCC)(CCC)NC(N)=O [Compound B, 1-(1,1-Di-n-propyl-2-pentynyl)-urea] gave an inhibition in vivo at 56.5 mg/kg ([2]; Mus musculus, 0.5 h, 56.5 mg/kg, mice, 30 min before test, read-out: % of decrease in number of combats) of 52%.

For CCCC(CCC)(CC(C)C)NC(N)=O [Compound P, 1-(1,1-Di-n-propyl-3-methyl-n-butyl)-urea], the “% of failures in rota rod test” value ([1]; 690 mg/kg oral) was 0% and the inhibition in vivo at 460 mg/kg ([2]; Mus musculus, 0.5 h, 460 mg/kg, mice, 30 min before test, read-out: % of decrease in number of combats) was 31%.

C=CCC(CCC)(CCC)NC(=O)NC [Compound L, 1-(1,1-Di-n-propyl-3-butenyl)-3-methyl-urea] gave an inhibition in vivo at 228 mg/kg ([2]; Mus musculus, 0.5 h, 228 mg/kg, mice, 30 min before test, read-out: % of decrease in number of combats) of 53%.

In the case of CC#CC(CCC)(CCC)NC(N)=O [Compound D, 1-(1,1-Di-n-propyl-2-butynyl)-urea], the “% of failures in rota rod test” value ([1]; 250 mg/kg oral) is reported as 50%, the inhibition in vivo at 74 mg/kg ([2]; Mus musculus, 0.5 h, 74 mg/kg, mice, 30 min before test, read-out: % of decrease in number of combats) is reported as 50% and the responders at 80.5 mg/kg [3, 9] is reported as 50%. The “anticonvulsant activity (in words)” value ([3]; pentylenetetrazole-induced seizure, mice, oral) was “considerable”.

With CCCC(C)(COC(N)=O)COC(N)=O [meprobamate, reference compound] the “rota rod test effect” value ([1]; 170 mg/kg (ED50 in isolated mouse test)) was 75%, the “failures in the rota rod test” value [1, 8] was 35% and the “Rota rod (% of failures)” value ([1]; 79 mg/kg) was 30%. For the same compound, the protection against anxiety ([2]; 70 mg/kg) was 50%, the “positive result in four plates test without sedative effect” value [4] was “impossible” and the ED25 ([4]; 0.5 h, mouse) was 79 mg/kg. The “sedative effects at antiaggressive dose” value ([5]; 170 mg/kg) was “considerable”, the ED50 ([5]; 0.5 h, oral, isolated mouse, 30 min after administration, read-out: ED50 (50% fewer attacks)) was 170 mg/kg and the “Spontaneous motoricity (% of decrease)” value ([6]; 79 mg/kg) was 11%.
